These results are taken from patent US20200239530A1, “COMPOUNDS AND METHODS OF MODULATING PROTEIN DEGRADATION” (Vividion Therapeutics, Inc., priority 2017, published 2020).

Holding throughout (test): Cysteine liganding, probe competition
What all share (format): binding

Assay [1] deals with T1, ATG16L1 Autophagy-related protein 16-1 (Homo sapiens, UniProt Q676U5).
T1 construct: 200 μL of lysate containing 5 mg/ml proteome was treated with 2 μL of 100× compound stock; endogenous in cells
In a few lines: (§1)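 Read-out is loss of desthiobiotin iodoacetamide labelling at cysteines, measured on streptavidin-enriched tryptic peptides. Compound preincubation ran 1 hr at 25° C in PBS lysate holding 5 mg/ml proteome before the probe was added.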

Assay [2] addresses T2, CDK17 Cyclin-dependent kinase 17 (Homo sapiens, UniProt Q00537).
T2 construct: 200 μL of lysate containing 5 mg/ml proteome was treated with 2 μL of 100× compound stock; endogenous in cells
The settings on record: for Liganded: CDK17 Res# 233, uniprot Q00537. In a few lines: as §1

The target of assay [3] is T3, TNFAIP3 Tumor necrosis factor alpha-induced protein 3 (Homo sapiens, UniProt P21580).
T3 construct: Cells were resuspended in cold PBS on ice and sonicated with a probe sonicator to achieve lysis; endogenous in cells
T3 sequence (P21580 1-790): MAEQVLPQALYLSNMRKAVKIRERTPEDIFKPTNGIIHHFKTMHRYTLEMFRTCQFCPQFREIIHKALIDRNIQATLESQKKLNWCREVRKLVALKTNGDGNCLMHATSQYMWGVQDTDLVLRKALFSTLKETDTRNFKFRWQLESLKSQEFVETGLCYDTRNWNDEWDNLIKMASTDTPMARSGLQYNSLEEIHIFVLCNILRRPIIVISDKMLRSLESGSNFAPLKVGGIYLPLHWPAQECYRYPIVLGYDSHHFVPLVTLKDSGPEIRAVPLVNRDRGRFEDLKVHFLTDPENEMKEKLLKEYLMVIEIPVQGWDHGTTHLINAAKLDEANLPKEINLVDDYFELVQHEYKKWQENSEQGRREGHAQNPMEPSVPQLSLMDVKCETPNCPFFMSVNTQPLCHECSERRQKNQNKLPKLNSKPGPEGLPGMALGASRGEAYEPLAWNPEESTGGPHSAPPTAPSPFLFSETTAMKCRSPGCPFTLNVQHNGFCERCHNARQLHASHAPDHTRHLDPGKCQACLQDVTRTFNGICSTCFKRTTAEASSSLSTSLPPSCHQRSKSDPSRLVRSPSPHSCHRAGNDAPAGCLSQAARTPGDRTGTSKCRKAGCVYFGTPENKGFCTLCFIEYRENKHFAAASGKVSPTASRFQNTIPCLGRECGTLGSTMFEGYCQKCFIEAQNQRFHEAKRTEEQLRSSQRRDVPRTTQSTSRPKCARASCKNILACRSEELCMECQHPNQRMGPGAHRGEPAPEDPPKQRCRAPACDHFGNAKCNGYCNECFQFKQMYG
The essentials: as §1

Where [4] appears, read: TNFAIP3 Res# 54, uniprot P21580.

SMILES strings stand for the structures.

T1 sequence (Q676U5 whole entry): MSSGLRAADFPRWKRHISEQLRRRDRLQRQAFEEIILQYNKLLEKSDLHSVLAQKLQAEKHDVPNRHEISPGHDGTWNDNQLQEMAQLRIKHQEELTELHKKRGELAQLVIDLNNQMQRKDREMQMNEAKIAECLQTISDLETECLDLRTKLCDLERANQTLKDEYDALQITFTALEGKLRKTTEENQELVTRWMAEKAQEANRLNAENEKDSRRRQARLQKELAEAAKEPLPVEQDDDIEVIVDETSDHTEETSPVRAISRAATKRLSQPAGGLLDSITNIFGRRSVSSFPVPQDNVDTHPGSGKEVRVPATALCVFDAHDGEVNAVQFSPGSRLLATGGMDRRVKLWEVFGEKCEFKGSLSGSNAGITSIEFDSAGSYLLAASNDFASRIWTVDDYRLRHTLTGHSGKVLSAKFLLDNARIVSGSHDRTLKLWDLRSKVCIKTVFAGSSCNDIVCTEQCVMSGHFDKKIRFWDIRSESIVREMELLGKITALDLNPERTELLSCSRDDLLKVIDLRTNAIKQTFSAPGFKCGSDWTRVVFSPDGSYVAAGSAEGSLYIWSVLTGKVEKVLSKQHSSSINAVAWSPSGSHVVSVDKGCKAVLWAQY
T2 sequence (Q00537 whole entry): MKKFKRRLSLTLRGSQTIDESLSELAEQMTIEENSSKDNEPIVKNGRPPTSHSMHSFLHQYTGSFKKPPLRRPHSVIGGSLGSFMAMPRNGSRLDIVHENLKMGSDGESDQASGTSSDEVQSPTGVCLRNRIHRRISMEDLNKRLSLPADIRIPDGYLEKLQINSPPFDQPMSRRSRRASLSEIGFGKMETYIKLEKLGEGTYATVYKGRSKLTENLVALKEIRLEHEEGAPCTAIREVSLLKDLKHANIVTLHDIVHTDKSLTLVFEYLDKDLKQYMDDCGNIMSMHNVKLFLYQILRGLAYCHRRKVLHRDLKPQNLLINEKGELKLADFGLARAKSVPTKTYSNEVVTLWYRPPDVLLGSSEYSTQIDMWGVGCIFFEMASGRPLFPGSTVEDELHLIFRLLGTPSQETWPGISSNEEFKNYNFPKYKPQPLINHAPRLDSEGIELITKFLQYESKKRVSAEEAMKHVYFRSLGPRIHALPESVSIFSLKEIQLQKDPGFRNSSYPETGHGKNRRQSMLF

Regarding `COc1ccc2c(c1)CCCN2C(=O)CCl` [KB02], the Liganded result was “YES” in assay [1] (ATG16L1 Res# 145, uniprot Q676U5); “YES” in assay [2]; “YES” in assay [3] (setting [4]); “YES” in assay [3] (TNFAIP3 Res# 536, uniprot P21580); “YES” in assay [3] (TNFAIP3 Res# 579, uniprot P21580).

Take `O=C(CCl)Nc1cc(C(F)(F)F)cc(C(F)(F)F)c1` [KBO3]: in assay [1] (uniprot Q676U5), the “100 Max” value is on record as −47.09, the 100 ave was −47.09, the “500 Max” value was 18.73 and the 500 ave is given as 18.73. Besides, the Liganded entry in assay [2] is listed as “YES”. In assay [2] (uniprot Q00537), the “100 Max” value came out at 50.67, the 100 ave was found to be 28.2075 and the 500 ave was found to be 79.225. Besides, in assay [2] (uniprot Q00537, in % (unit assumed)), the “500 Max” value is 80.44. Besides, in assay [3] (setting [4]), the Liganded result is “YES”.
